These results are taken from article PMC6327983, “Discovery of cyanopyridine scaffold as novel indoleamine-2,3-dioxygenase 1 (IDO1) inhibitors through virtual screening and preliminary hit optimisation” (Journal of Enzyme Inhibition and Medicinal Chemistry, 2019).

The target in series [1] is T1, IDO1 (Homo sapiens, UniProt P14902).
T1 construct: made in house
The series can be described thus: Enzyme-based IDO1 activity assay. It is filed as biochemical. Conditions: for IC50 / Enzymatic assay IC50 (hIDO1): purified human IDO1 enzyme; for IC50: read-out: Enzymatic assay IC50 (hIDO1); for Inhibition ratio (%) @10 μM: 10 μM compound, purified recombinant IDO1.

Series [2] has as its system HeLa. Conditions: Figure 1, literature value; cited from earlier work.
Series [3] has as its system SKOV3. On the set-up: method as in earlier work. Particulars: Figure 1, literature values; 27 (4), 28 (5); cited from earlier work.
In series [4] the target is HeLa (IDO1) (Homo sapiens, UniProt P14902). Description: Cell-based IDO1 activity assay (HeLa kynurenine assay). Particulars: IFN-γ stimulated HeLa cells; for EC50: 24 h, read-out: Cellular assay EC50 HeLa (IDO1); for Hill slope of the curves (cellular dose response): Figure 9. The method, then:
After incubation for 24 h, 140 µL of supernatant was mixed with 10 µL of 6.1 N trichloroacetic acid and the mixture was incubated for 30 min at 60 °C. The reaction mixture was then centrifuged for 20 min at 4000 rpm at 0 °C to remove sediments. About 100 µL of the supernatant was mixed with 100 µL of 2% (w/v) p-DMAB in acetic acid and measured at 480 nm. The final DMSO concentration was 0.5%. The data were analysed using Graphpad Prism 6.
The HeLa-based cellular assay is informative for drug development, as it evaluates not only the IDO1 inhibitory effect of the compounds but also their capacity to permeate the cell, their inhibition of tryptophan and kynurenine transport and their potential cytotoxicity. […] In addition, since the inhibition of tryptophan degradation could simply be an effect of cytotoxicity, thus the determination of cell viability was necessary when reporting cellular IC50 values. In the initial work, all of the screened compounds were determined for their cell viability using the classical MTT assy.

The IC50 is the midpoint of a concentration-inhibition curve. By melting point is commonly meant the temperature, or range, at which the solid turns liquid. As usually defined, the EC50 is the concentration at which the effect is half-maximal.

T1 sequence (P14902 whole entry): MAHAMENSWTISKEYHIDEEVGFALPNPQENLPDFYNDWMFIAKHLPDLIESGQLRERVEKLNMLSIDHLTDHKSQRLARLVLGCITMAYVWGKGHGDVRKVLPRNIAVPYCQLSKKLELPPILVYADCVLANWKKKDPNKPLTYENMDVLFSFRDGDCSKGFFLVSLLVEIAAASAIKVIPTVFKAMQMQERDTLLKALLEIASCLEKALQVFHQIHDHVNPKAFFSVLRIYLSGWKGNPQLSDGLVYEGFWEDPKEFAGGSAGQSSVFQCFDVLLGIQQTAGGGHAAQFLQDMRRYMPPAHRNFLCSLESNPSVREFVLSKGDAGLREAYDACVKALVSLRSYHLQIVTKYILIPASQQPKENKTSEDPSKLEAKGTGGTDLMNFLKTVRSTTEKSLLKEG
HeLa (IDO1), sequence (P14902 whole entry): as above

“2-((3-Cyano-6-(trifluoromethyl)pyridin-2-yl)thio)-N-(p-tolyl)acetamide [LBJ-13]”: in series [1], the IC50 was determined as 23.6 ± 2.11 µM. For the molecule “4-amino-1,2,5-oxadiazole-3-carboximidamide [Compound 6]”, the IC50 in series [2] was 1 µM. As for `Cn1cc(C[C@@H](N)C(=O)O)c2ccccc21` [Compound 1, 1-methyl-D-tryptophan], the IC50 in series [2] is 1500 µM. Consider `NS(=O)(=O)NCCNc1nonc1C(=NO)Nc1ccc(F)c(Br)c1` [Compound 3], for which, in series [2], the IC50 is 0.0071 µM. On to `O=C1CC(c2c[nH]c3ccc(F)cc23)C(=O)N1` (stereo not shown) [Compound 4], for which the IC50 in series [3] was 0.07 µM.

For the molecule `C[C@@H](C(=O)Nc1ccc(Cl)cc1)C1CCC(c2ccnc3ccc(F)cc23)CC1` (stereo partly shown) [Compound 5], in series [3], the IC50 was 0.0034 µM. With `N#Cc1cccnc1OCC(=O)Nc1ccc(F)cc1` [LBJ-01, 2-((3-Cyanopyridin-2-yl)oxy)-N-(4-fluorophenyl)acetamide], the melting point lay in the range of 234 to 236 °C. For the same molecule, the concentration for half-maximal inhibition (IC50) in series [1] was 19.5 ± 0.28 µM. In the case of `N#Cc1ccccc1SCC(=O)Nc1ccc(F)cc1` [LBJ-02, 2-((2-Cyanophenyl)thio)-N-(4-fluorophenyl)acetamide], the melting point lay in the range of 215 to 217 °C. `N#Cc1ccncc1SCC(=O)Nc1ccc(F)cc1` [LBJ-04, 2-((4-Cyanopyridin-3-yl)thio)-N-(4-fluorophenyl)acetamide] showed a melting point of 206 to 209 °C. Besides, the IC50 in series [1] came to 43.6 ± 0.85 µM. `N#Cc1cnccc1SCC(=O)Nc1ccc(F)cc1` [LBJ-05, 2-((3-Cyanopyridin-4-yl)thio)-N-(4-fluorophenyl)acetamide] displayed a melting point of 232 to 234 °C. Besides, the 50% inhibitory concentration (IC50) in series [1] came to 18 ± 0.13 µM.

Turning to `N#Cc1ncccc1SCC(=O)Nc1ccc(F)cc1` [LBJ-06, 2-((2-Cyanopyridin-3-yl)thio)-N-(4-fluorophenyl)acetamide], the melting point was 211 to 213 °C.

In the case of `Cc1ccc(C#N)c(SCC(=O)Nc2ccc(F)cc2)n1` [LBJ-07, 2-((3-Cyano-6-methylpyridin-2-yl)thio)-N-(4-fluorophenyl)acetamide], the melting point was in the range of 238 to 240 °C. The half-maximal inhibitory concentration (IC50) in series [1] was 20.6 ± 1.12 µM. `N#Cc1ccc(C(F)(F)F)nc1SCC(=O)Nc1ccc(F)cc1` [LBJ-08, 2-((3-Cyano-6-(trifluoromethyl)pyridin-2-yl)thio)-N-(4-fluorophenyl)acetamide] displayed a melting point of 201 to 204 °C. Further, the IC50 in series [1] turned out to be 1.87 ± 0.83 µM. For the molecule `N#Cc1ccc(C(F)(F)F)nc1SCC(=O)Nc1ccccc1F` [LBJ-09, 2-((3-Cyano-6-(trifluoromethyl)pyridin-2-yl)thio)-N-(2-fluorophenyl)acetamide], the melting point was 208 to 211 °C. Also, the IC50 in series [1] stood at 5.81 ± 1.2 µM. With `N#Cc1ccc(C(F)(F)F)nc1SCC(=O)Nc1ccccc1` [LBJ-11, 2-((3-Cyano-6-(trifluoromethyl)pyridin-2-yl)thio)-N-phenylacetamide], the melting point was 230 to 233 °C. Besides, in series [1], the IC50 is 9.61 ± 0.71 µM. For `Cc1ccc(NC(=O)CSc2nc(C(F)(F)F)ccc2C#N)cc1` [LBJ-12, 2-((3-Cyano-6-(trifluoromethyl)pyridin-2-yl)thio)-N-(p-tolyl)acetamide] the same measures were 212 to 214 °C and 17.9 ± 1.28 µM. For the molecule `O=C(CSc1cccc(C(F)(F)F)n1)Nc1ccc(F)c(Cl)c1` [LBJ-14, N-(3-Chloro-4-fluorophenyl)-2-((6-(trifluoromethyl)pyridin-2-yl)thio)acetamide], the melting point fell in the range of 86 to 88 °C. For the same molecule, the IC50 in series [1] was 35.7 ± 1.25 µM.

As for `Cc1sc2nc(SCC(=O)c3ccc(F)cc3)n(N)c(=O)c2c1C` [LVS-001], the IC50 in series [1] came to 14.2 ± 1.43 µM. Still for that read-out and setting: in the case of `Cn1c(COc2ccccc2)c(C#N)c2ccccc21` [LVS-002] it was 8.08 ± 1.3 µM.

In the case of `O=c1c2c(-c3ccc([N+](=O)[O-])cc3)csc2nc2n1CCC2` [LVS-004], the “Inhibition ratio (%) @10 μM” value in series [1] was determined as 9.65 ± 0.09%. Same read-out and setting: the result for `O=C(CSc1nnc2scc(-c3ccc(Cl)cc3)n12)Nc1ccc(F)cc1` [LVS-005] reads 30.73 ± 0.93%; that for `O=C(Nc1ccc2nsnc2c1)c1ccc(F)cc1` [LVS-006], 15.83 ± 0.18%. For `COc1cccc(NC(=O)CSc2nc(N)c(C#N)cc2C#N)c1` [LVS-008], the “Inhibition ratio (%) @10 μM” value in series [1] is listed as 4.31 ± 0.04%. On the same count and under the same terms, in the case of `O=S(=O)(c1cccc2cccc(Cl)c12)N1CCCC1` [LVS-013] it was 14.15 ± 0.38%; in that of `Cc1ccc(NC(=O)COc2ccccc2CO)cc1` [LVS-014], 11.62 ± 1.19%; in that of `CCOc1ccc(/C=c2\sc3nnc(-c4ccccc4Cl)n3c2=O)cc1` [LVS-015], 11.05 ± 0.02%. In the case of `O=[N+]([O-])c1ccc(Oc2nsnc2N2CCOCC2)cc1` [LVS-018], the IC50 in series [1] is 18.4 ± 2.31 µM. As for `CC(C)c1ccc(C#N)c(SCC(=O)Nc2ccc(F)cc2)n1` [LVS-019], in series [4], the EC50 worked out at 7.68 ± 0.27 µM and the “Hill slope of the curves (cellular dose response)” value (from here on “Hill slope of the curves”) is given as 1.11. For the same molecule, the IC50 in series [1] was found to be 2.64 ± 0.94 µM. Consider `COc1ccccc1-c1cc(C(=O)O)c2ccccc2n1` [LVS-020], for which, in series [1], the “Inhibition ratio (%) @10 μM” value worked out at 0.11 ± 1.98%. With `O=C(CS(=O)(=O)c1ccccc1)Nc1ccc(Br)cn1` [LVS-022], the “Inhibition ratio (%) @10 μM” value in series [1] is 21.29 ± 0.22%. On to `Cn1c(=O)c(Sc2ccc(Cl)cc2)c(O)c2ccccc21` [LVS-023], for which the “Inhibition ratio (%) @10 μM” value in series [1] came to 10.22 ± 1.11%. On the same count and under the same terms, in the case of `O=S(=O)(NC1CCCc2ccccc21)c1ccc(Br)cc1` (stereo not shown) [LVS-027] it was 3.37 ± 0.04%; in that of `Cc1ccc(C(=O)CC2(O)C(=O)N(C)c3ccccc32)cc1` (stereo not shown) [LVS-029], 9.91 ± 0.65%. Turning to `O=C(Cn1nnnc1-c1ccccc1)c1ccc(Br)cc1` [LVS-030], the “Inhibition ratio (%) @10 μM” value in series [1] is 2.00 ± 0.28%. Consider `Sc1nnc(-c2csc3c2CCCC3)n1Cc1ccccc1` [LVS-032], for which, in series [1], the IC50 was 10.4 ± 1.01 µM.

Take `CCN(CC)C(=O)CSc1nc(C)cc(C)c1C#N` [LVS-033]: the IC50 in series [1] worked out at 36.6 ± 5.46 µM. For the molecule `N#Cc1c(C(F)(F)F)cc(-c2cccs2)nc1SCC(=O)Nc1ccc2ccccc2c1` [LVS-034], the IC50 in series [1] worked out at 66.2 ± 14.3 µM. On to `COCc1cc(C)nc(SCC(=O)Nc2ccc(C)c(C)c2)c1C#N` [LVS-035], for which the 50% inhibitory concentration (IC50) in series [1] is 27.6 ± 6.82 µM.

As to `Cc1cc(C)c(C#N)c(SCC(=O)Nc2sc(C)c(C)c2C#N)n1` [LVS-036], the IC50 in series [1] was 78.7 ± 8.46 µM.

With `N#Cc1c(C(F)(F)F)cc(-c2cccs2)nc1SCC(=O)Nc1ccc(F)cc1` [LVS-037], the IC50 in series [1] came to 54.7 ± 4.7 µM.

In the case of `Cc1cc(C)c(C#N)c(SCC(=O)Nc2cccc(C)c2C)n1` [LVS-038], the “Enzymatic assay IC50 (hIDO1)” value in series [1] is given as “Not Converged”. On to `Cc1cc(C)c(C#N)c(SCC(=O)Nc2ccc(Cl)c(Cl)c2)n1` [LVS-039], for which, in series [4], the half-maximal effective concentration (EC50) amounted to 3.42 ± 0.56 µM and the “Hill slope of the curves” value is listed as 0.69. Also, in series [1], the IC50 amounted to 2.57 ± 0.42 µM. As for `COc1ccc(-c2ccc(C#N)c(SCC(=O)Nc3ccccc3Br)n2)cc1` [LVS-040], the IC50 in series [1] came out at 74.7 ± 15.2 µM. `COc1cccc(-c2ccc(C#N)c(SCC(=O)Nc3cccc(C)c3)n2)c1` [LVS-041]: the IC50 in series [1] was determined as 55.1 ± 10.1 µM. Take `COc1cccc(-c2ccc(C#N)c(SCC(=O)Nc3ccccc3Cl)n2)c1` [LVS-042]: the IC50 in series [1] came to 38.5 ± 6.09 µM. The same measure, in the same setting: in the case of `N#Cc1cc2c(nc1SCC(=O)Nc1nccs1)CCCCC2` [LVS-043] it was 21.7 ± 3.18 µM. For the molecule `N#Cc1cc2c(nc1SCC(=O)Nc1ccc(F)cc1)CCCC2` [LVS-044], the 50% inhibitory concentration (IC50) in series [1] was 49.3 ± 10 µM.

For the molecule `Cc1cc(C)c(C#N)c(SCC(=O)Nc2sc3c(c2C#N)CCC3)n1` [LVS-045], the IC50 in series [1] amounted to 26 ± 9.64 µM. `Cc1nc(SCC(=O)Nc2sc3c(c2C#N)CCC3)c(C#N)c(C)c1C` [LVS-046]: the “Enzymatic assay IC50 (hIDO1)” value in series [1] is “Not Converged”. In the case of `CCc1nc(SCC(=O)Nc2sc3c(c2C#N)CCC3)c(C#N)cc1C` [LVS-047], the IC50 in series [1] came to 21.2 ± 7.1 µM. As for `Cc1cc(C(F)(F)F)nc(SCC(=O)Nc2sc3c(c2C#N)CCC3)c1C#N` [LVS-048], in series [4], the EC50 came out at 9.4 ± 0.07 µM and the “Hill slope of the curves” value amounted to 0.70. Moreover, the concentration for half-maximal inhibition (IC50) in series [1] was found to be 8.76 ± 1.74 µM. For `N#Cc1cc2c(nc1SCC(=O)Nc1sc3c(c1C#N)CCCC3)CCCCCC2` [LVS-049], in series [1], the IC50 was 14.8 ± 3.14 µM. On to `CN1CCc2nc(SCC(=O)Nc3sc4c(c3C#N)CCCC4)c(C#N)cc2C1` [LVS-050], for which the “Enzymatic assay IC50 (hIDO1)” value in series [1] is recorded as “Not Converged”. The same measure, in the same setting: the result for `COc1cc2c(cc1OC)CN(C(=O)CSc1nc(C)cc(C)c1C#N)CC2` [LVS-051] reads “Not Converged”. For `Cc1cc(C(F)(F)F)c(C#N)c(SCC(=O)Nc2ncc(Br)cc2Br)n1` [LVS-052], the IC50 in series [1] turned out to be 1.38 ± 0.57 µM.

Take `N#Cc1cc2c(nc1SCC(=O)Nc1cc(Cl)cc(Cl)c1)C1CCN2CC1` [LVS-053]: in series [1], the “Enzymatic assay IC50 (hIDO1)” value is “Not Converged”. The same measure, in the same setting: the result for `CN1CCc2nc(SCC(=O)Nc3ccccc3)c(C#N)cc2C1` [LVS-054] reads “Not Converged”. With `Cc1cc(C)c(C#N)c(SCC(=O)Nc2nccs2)n1` [LVS-055], the “Enzymatic assay IC50 (hIDO1)” value in series [1] is “Not Converged”.
